Measurements: patent US20120029187A1, “HALOALKYLSULFONANILIDE DERIVATIVE” (Nissan Chemical Industries, Ltd., priority 2009, published 2012)

Legend:
Format in all cases: in vivo
transplanted rice = assay: Test Example 1: preemergence treatment under submerged conditions, effect on crop; conditions: dose 2.52 g/a
Method in brief: (§1)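 Weed seeds and 2.5-leaf rice seedlings shared each flooded cup of alluvial soil. Dosing, expressed as g per are, was by pouring water-diluted emulsifiable concentrate onto the surface on sowing day. Mortality was graded 0 to 5 after three weeks' growth.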

ducksalad [1] = assay: Test Example 1: herbicidal effects in preemergence treatment under submerged conditions; conditions: dose 2.52 g/a
Method in brief: as §1

barnyardgrass [2] = assay: as above; conditions: dose 2.52 g/a
Method in brief: as §1

bulrush [3] = assay: as above; conditions: dose 2.52 g/a
Method in brief: as §1

ducksalad [4] = assay: Test Example 2: herbicidal effects during the vegetation period under submerged conditions; conditions: treatment during the vegetation period under submerged conditions; dose 2.52 g/a
Method in brief: (§2)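 Barnyardgrass, bulrush and ducksalad were co-sown in alluvial soil flooded to 4 cm and grown in a greenhouse at 25 to 30° C. At the 1- or 2-leaf stage, water-diluted emulsifiable concentrates went onto the water surface at set doses (g/a). Herbicidal effect was scored three weeks later on a graded scale.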

barnyardgrass [5] = assay: as above; conditions: treatment during the vegetation period under submerged conditions; dose 2.52 g/a
Method in brief: as §2

bulrush [6] = assay: as above; conditions: treatment during the vegetation period under submerged conditions; dose 2.52 g/a
Method in brief: as §2

common chickweed [7] = assay: Test Example 4: herbicidal effect in foliage treatment; conditions: dose 3.2 g/a, three weeks after application
Method in brief: (§3)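 Foliar spray, post-emergence: 14-day-old greenhouse plants (25–30° C, diluvial soil) treated with water-diluted EC at set g/a doses; visual herbicidal score at 3 wk post-application.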

beadstraw [8] = assay: as above; conditions: dose 3.2 g/a, three weeks after application
Method in brief: as §3

barnyardgrass [9] = assay: as above; conditions: dose 3.2 g/a, three weeks after application
Method in brief: as §3

redroot pigweed [10] = assay: as above; conditions: dose 3.2 g/a, three weeks after application
Method in brief: as §3

common lambsquater [11] = assay: as above; conditions: dose 3.2 g/a, three weeks after application
Method in brief: as §3

velvetleaf [12] = assay: as above; conditions: dose 3.2 g/a, three weeks after application
Method in brief: as §3

giant foxtail [13] = assay: as above; conditions: dose 3.2 g/a, three weeks after application
Method in brief: as §3

posumbu knotweed [14] = assay: as above; conditions: dose 3.2 g/a, three weeks after application
Method in brief: as §3

wild oat [15] = assay: as above; conditions: dose 3.2 g/a, three weeks after application
Method in brief: as §3

Italian ryegrass [16] = assay: as above; conditions: dose 3.2 g/a, three weeks after application
Method in brief: as §3

water foxtail [17] = assay: as above; conditions: dose 3.2 g/a, three weeks after application
Method in brief: as §3

large crabgrass [18] = assay: as above; conditions: dose 3.2 g/a, three weeks after application
Method in brief: as §3

common ragweed [19] = assay: as above; conditions: dose 3.2 g/a, three weeks after application
Method in brief: as §3

common chickweed [20] = assay: Test Example 3: herbicidal effects in soil treatment; conditions: dose 3.2 g/a
Method in brief: (§4)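 Seeds were sown in sterilized diluvial soil and covered with about 1.5 cm of soil. Compounds, formulated as emulsifiable concentrates and diluted with water, were sprayed evenly over the soil surface at set doses in g/a. Herbicidal effect was scored on a rating scale three weeks later.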

beadstraw [21] = assay: as above; conditions: dose 3.2 g/a
Method in brief: as §4

barnyardgrass [22] = assay: as above; conditions: dose 3.2 g/a
Method in brief: as §4

redroot pigweed [23] = assay: as above; conditions: dose 3.2 g/a
Method in brief: as §4

common lambsquater [24] = assay: as above; conditions: dose 3.2 g/a
Method in brief: as §4

velvetleaf [25] = assay: as above; conditions: dose 3.2 g/a
Method in brief: as §4

giant foxtail [26] = assay: as above; conditions: dose 3.2 g/a
Method in brief: as §4

posumbu knotweed [27] = assay: as above; conditions: dose 3.2 g/a
Method in brief: as §4

wild oat [28] = assay: as above; conditions: dose 3.2 g/a
Method in brief: as §4

Italian ryegrass [29] = assay: as above; conditions: dose 3.2 g/a
Method in brief: as §4

water foxtail [30] = assay: as above; conditions: dose 3.2 g/a
Method in brief: as §4

large crabgrass [31] = assay: as above; conditions: dose 3.2 g/a
Method in brief: as §4

common ragweed [32] = assay: as above; conditions: dose 3.2 g/a
Method in brief: as §4

| Structure (SMILES) | a: transplanted rice, effect on crop (evaluation scale 0-5) (transplanted rice) | C: ducksalad, herbicidal effect (evaluation scale 0-5) (ducksalad [1]) | A: barnyardgrass, herbicidal effect (evaluation scale 0-5) (barnyardgrass [2]) | B: bulrush, herbicidal effect (evaluation scale 0-5) (bulrush [3]) | C: ducksalad, herbicidal effect (evaluation scale 0-5) (ducksalad [4]) | A: barnyardgrass, herbicidal effect (evaluation scale 0-5) (barnyardgrass [5]) | B: bulrush, herbicidal effect (evaluation scale 0-5) (bulrush [6]) | N: common chickweed, herbicidal effect (common chickweed [7]) | O: beadstraw, herbicidal effect (beadstraw [8]) | A: barnyardgrass, herbicidal effect (barnyardgrass [9]) | K: redroot pigweed, herbicidal effect (redroot pigweed [10]) | L: common lambsquater, herbicidal effect (common lambsquater [11]) | I: velvetleaf, herbicidal effect (velvetleaf [12]) | E: giant foxtail, herbicidal effect (giant foxtail [13]) | M: posumbu knotweed, herbicidal effect (posumbu knotweed [14]) | F: wild oat, herbicidal effect (wild oat [15]) | H: Italian ryegrass, herbicidal effect (Italian ryegrass [16]) | G: water foxtail, herbicidal effect (water foxtail [17]) | D: large crabgrass, herbicidal effect (large crabgrass [18]) | J: common ragweed, herbicidal effect (common ragweed [19]) | also measured |
| --- | --- | --- | --- | --- | --- | --- | --- | --- | --- | --- | --- | --- | --- | --- | --- | --- | --- | --- | --- | --- | --- |
| CCOC(=O)N(c1ccccc1CN1COC(C)(C)C(F)C1=O)S(=O)(=O)C(F)(F)F (stereo not drawn) [II-34] | 0 (mortality of less than 5% (almost ineffective)) | 5 (mortality of 90% or above (nearly complete death)) | 5 (mortality of 90% or above (nearly complete death)) | 5 (mortality of 90% or above (nearly complete death)) | 5 (mortality of 90% or above (nearly complete death)) | 5 (mortality of 90% or above (nearly complete death)) | 5 (mortality of 90% or above (nearly complete death)) | 4 (mortality of at least 70% and less than 90%) | 4 (mortality of at least 70% and less than 90%) | 5 (mortality of 90% or above (nearly complete death)) | 2 (mortality of at least 20% and less than 40%) | 3 (mortality of at least 40% and less than 70%) | 3 (mortality of at least 40% and less than 70%) | 3 (mortality of at least 40% and less than 70%) | 4 (mortality of at least 70% and less than 90%) | 0 (mortality of less than 5% (almost ineffective)) | 4 (mortality of at least 70% and less than 90%) | 5 (mortality of 90% or above (nearly complete death)) | 4 (mortality of at least 70% and less than 90%) | 4 (mortality of at least 70% and less than 90%) | N: common chickweed, herbicidal effect (evaluation scale 0-5) (common chickweed [20]): 3 (mortality of at least 40% and less than 70%); O: beadstraw, herbicidal effect (evaluation scale 0-5) (beadstraw [21]): 4 (mortality of at least 70% and less than 90%); A: barnyardgrass, herbicidal effect (evaluation scale 0-5) (barnyardgrass [22]): 5 (mortality of 90% or above (nearly complete death)); K: redroot pigweed, herbicidal effect (evaluation scale 0-5) (redroot pigweed [23]): 3 (mortality of at least 40% and less than 70%); L: common lambsquater, herbicidal effect (evaluation scale 0-5) (common lambsquater [24]): 3 (mortality of at least 40% and less than 70%); I: velvetleaf, herbicidal effect (evaluation scale 0-5) (velvetleaf [25]): 3 (mortality of at least 40% and less than 70%); E: giant foxtail, herbicidal effect (evaluation scale 0-5) (giant foxtail [26]): 4 (mortality of at least 70% and less than 90%); M: posumbu knotweed, herbicidal effect (evaluation scale 0-5) (posumbu knotweed [27]): 5 (mortality of 90% or above (nearly complete death)); F: wild oat, herbicidal effect (evaluation scale 0-5) (wild oat [28]): 0 (mortality of less than 5% (almost ineffective)); H: Italian ryegrass, herbicidal effect (evaluation scale 0-5) (Italian ryegrass [29]): 2 (mortality of at least 20% and less than 40%); G: water foxtail, herbicidal effect (evaluation scale 0-5) (water foxtail [30]): 5 (mortality of 90% or above (nearly complete death)); D: large crabgrass, herbicidal effect (evaluation scale 0-5) (large crabgrass [31]): 5 (mortality of 90% or above (nearly complete death)); J: common ragweed, herbicidal effect (evaluation scale 0-5) (common ragweed [32]): 4 (mortality of at least 70% and less than 90%) |
| CC(C)COC(=O)N(c1ccccc1CN1COC(C)(C)C(F)C1=O)S(=O)(=O)C(F)(F)F (stereo not drawn) [II-36] | 0 (mortality of less than 5% (almost ineffective)) | 5 (mortality of 90% or above (nearly complete death)) | 5 (mortality of 90% or above (nearly complete death)) | 5 (mortality of 90% or above (nearly complete death)) | 5 (mortality of 90% or above (nearly complete death)) | 5 (mortality of 90% or above (nearly complete death)) | 5 (mortality of 90% or above (nearly complete death)) | 3 (mortality of at least 40% and less than 70%) | 3 (mortality of at least 40% and less than 70%) | 5 (mortality of 90% or above (nearly complete death)) | 0 (mortality of less than 5% (almost ineffective)) | 1 (mortality of at least 5% and less than 20%) | 2 (mortality of at least 20% and less than 40%) | 3 (mortality of at least 40% and less than 70%) | 2 (mortality of at least 20% and less than 40%) | 0 (mortality of less than 5% (almost ineffective)) | 2 (mortality of at least 20% and less than 40%) | 4 (mortality of at least 70% and less than 90%) | 4 (mortality of at least 70% and less than 90%) | 3 (mortality of at least 40% and less than 70%) | N: common chickweed, herbicidal effect (evaluation scale 0-5) (common chickweed [20]): 4 (mortality of at least 70% and less than 90%); O: beadstraw, herbicidal effect (evaluation scale 0-5) (beadstraw [21]): 4 (mortality of at least 70% and less than 90%); A: barnyardgrass, herbicidal effect (evaluation scale 0-5) (barnyardgrass [22]): 5 (mortality of 90% or above (nearly complete death)); K: redroot pigweed, herbicidal effect (evaluation scale 0-5) (redroot pigweed [23]): 0 (mortality of less than 5% (almost ineffective)); L: common lambsquater, herbicidal effect (evaluation scale 0-5) (common lambsquater [24]): 0 (mortality of less than 5% (almost ineffective)); I: velvetleaf, herbicidal effect (evaluation scale 0-5) (velvetleaf [25]): 3 (mortality of at least 40% and less than 70%); E: giant foxtail, herbicidal effect (evaluation scale 0-5) (giant foxtail [26]): 3 (mortality of at least 40% and less than 70%); M: posumbu knotweed, herbicidal effect (evaluation scale 0-5) (posumbu knotweed [27]): 4 (mortality of at least 70% and less than 90%); F: wild oat, herbicidal effect (evaluation scale 0-5) (wild oat [28]): 0 (mortality of less than 5% (almost ineffective)); H: Italian ryegrass, herbicidal effect (evaluation scale 0-5) (Italian ryegrass [29]): 0 (mortality of less than 5% (almost ineffective)); G: water foxtail, herbicidal effect (evaluation scale 0-5) (water foxtail [30]): 5 (mortality of 90% or above (nearly complete death)); D: large crabgrass, herbicidal effect (evaluation scale 0-5) (large crabgrass [31]): 4 (mortality of at least 70% and less than 90%); J: common ragweed, herbicidal effect (evaluation scale 0-5) (common ragweed [32]): 4 (mortality of at least 70% and less than 90%) |
